Values quoted from earlier work, collected in patent US20030083378A1, “Eye drops” (priority 2000, published 2003).

Tests used:
leukotrienes = details: Japanese Unexamined Patent Publication No. Hei 2-1459
respiratory anaphylaxis = details: Japanese Unexamined Patent Publication No. Hei 2-1459

CCCc1c(SCCCOc2ccc(C(C)=O)c(OCCCC(=O)O)c2CCC)ccc(C(C)=O)c1O [KCA-757, 4-[6-acetyl-3-[3-[(4-acetyl-3-hydroxy-2-propylphenyl)thio]propoxy]-2-propylphenoxy]butyric acid]
Solubility: slightly soluble | Leukotriene antagonist activity (leukotrienes): potent and selective leukotriene antagonist activity | Inhibitory function on respiratory anaphylaxis (respiratory anaphylaxis): inhibitory function on respiratory anaphylaxis
